Data set [1] deals with Transient receptor potential cation channel subfamily V member 4 (Homo sapiens, UniProt Q9HBA0). Description: Inhibition of human TRPV4 expressed in baculovirus infected HEK/MSR 2 cells pre-incubated for 10 mins followed by GSK634775A addition by Fura-2 dye based FLIPR assay.
Data set [2] is described as follows: Lipophilicity, chromatographic logD of compound at pH 7.4. The note with it: buffer.
Data set [3] is described as follows: Unbound clearance in Sprague-Dawley rat. It counts as ADME. Conditions: in vivo.
A short description of data set [4]: Mean residence time in Sprague-Dawley rat at 1 mg/kg, iv measured after 24 hrs by HPLC-MS/MS analysis. The class given is ADME, organism-based. The note with it: in vivo.
A short description of data set [5]: Clearance in Sprague-Dawley rat at 1 mg/kg, iv measured after 24 hrs by HPLC-MS/MS analysis. The class given is ADME, organism-based. Conditions: in vivo.
Data set [6] in a line: Oral bioavailability in Sprague-Dawley rat at 2 mg/kg measured after 24 hrs by HPLC-MS/MS analysis. Conditions: in vivo. The class given is ADME, organism-based.
Data set [7] is described as follows: Volume of distribution at steady state in Sprague-Dawley rat at 1 mg/kg, iv measured after 24 hrs by HPLC-MS/MS analysis. Conditions: in vivo, read-out: Vdss. The class given is ADME, organism-based.
Data set [8] can be described thus: Unbound volume of distribution at steady state in Sprague-Dawley rat. It counts as ADME. Conditions: in vivo.
A short description of data set [9]: Unbound fraction in Sprague-Dawley rat plasma. The class given is ADME, cell-free.
Data set [10] has as its target Transient receptor potential cation channel subfamily V member 4 (Rattus norvegicus, UniProt Q9ERZ8). As to the kind of experiment: Inhibition of rat TRPV4 expressed in baculovirus infected HEK/MSR 2 cells pre-incubated for 10 mins followed by GSK634775A addition by Fura-2 dye based FLIPR assay.

SMILES strings stand for the structures.

In general, IC50 refers to the concentration at which inhibition is half-maximal. A low value points to greater potency in that assay. The MRT is a mean duration of stay, worked out from the concentration-time curve. As a reminder, the clearance is the rate of elimination divided by the concentration. A higher clearance goes with a high capacity for elimination. For orientation: bioavailability means dose-corrected exposure relative to a reference, in per cent. The low end stands for poor availability, the high end for good availability. The term fraction unbound denotes the share of the substance not bound to proteins or other matrix.

Sequence of Transient receptor potential cation channel subfamily V member 4 (Homo sapiens, UniProt Q9HBA0) (Q9HBA0 whole entry): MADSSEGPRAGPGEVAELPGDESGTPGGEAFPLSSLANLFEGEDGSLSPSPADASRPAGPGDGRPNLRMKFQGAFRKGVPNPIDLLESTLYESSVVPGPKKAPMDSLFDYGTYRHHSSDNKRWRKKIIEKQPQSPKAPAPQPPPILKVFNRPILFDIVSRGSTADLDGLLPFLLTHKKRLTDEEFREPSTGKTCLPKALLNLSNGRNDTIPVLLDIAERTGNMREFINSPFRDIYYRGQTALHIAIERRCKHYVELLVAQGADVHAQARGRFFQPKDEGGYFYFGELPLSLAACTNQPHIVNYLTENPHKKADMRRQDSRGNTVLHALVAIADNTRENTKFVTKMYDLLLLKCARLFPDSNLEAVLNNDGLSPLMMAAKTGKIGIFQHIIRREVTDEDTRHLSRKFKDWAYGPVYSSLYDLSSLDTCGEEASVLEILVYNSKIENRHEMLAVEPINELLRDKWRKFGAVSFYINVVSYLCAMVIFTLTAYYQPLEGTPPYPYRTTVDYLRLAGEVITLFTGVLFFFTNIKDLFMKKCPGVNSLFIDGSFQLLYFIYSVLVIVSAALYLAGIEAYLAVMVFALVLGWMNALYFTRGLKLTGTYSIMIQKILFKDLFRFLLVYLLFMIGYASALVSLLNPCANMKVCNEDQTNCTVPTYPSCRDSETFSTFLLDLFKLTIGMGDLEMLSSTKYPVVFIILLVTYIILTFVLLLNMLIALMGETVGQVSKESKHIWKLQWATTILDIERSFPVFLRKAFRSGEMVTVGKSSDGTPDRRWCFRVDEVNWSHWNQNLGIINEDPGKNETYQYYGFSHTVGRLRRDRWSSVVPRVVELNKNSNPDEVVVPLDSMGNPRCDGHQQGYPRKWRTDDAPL
Sequence of Transient receptor potential cation channel subfamily V member 4 (Rattus norvegicus, UniProt Q9ERZ8) (Q9ERZ8 whole entry): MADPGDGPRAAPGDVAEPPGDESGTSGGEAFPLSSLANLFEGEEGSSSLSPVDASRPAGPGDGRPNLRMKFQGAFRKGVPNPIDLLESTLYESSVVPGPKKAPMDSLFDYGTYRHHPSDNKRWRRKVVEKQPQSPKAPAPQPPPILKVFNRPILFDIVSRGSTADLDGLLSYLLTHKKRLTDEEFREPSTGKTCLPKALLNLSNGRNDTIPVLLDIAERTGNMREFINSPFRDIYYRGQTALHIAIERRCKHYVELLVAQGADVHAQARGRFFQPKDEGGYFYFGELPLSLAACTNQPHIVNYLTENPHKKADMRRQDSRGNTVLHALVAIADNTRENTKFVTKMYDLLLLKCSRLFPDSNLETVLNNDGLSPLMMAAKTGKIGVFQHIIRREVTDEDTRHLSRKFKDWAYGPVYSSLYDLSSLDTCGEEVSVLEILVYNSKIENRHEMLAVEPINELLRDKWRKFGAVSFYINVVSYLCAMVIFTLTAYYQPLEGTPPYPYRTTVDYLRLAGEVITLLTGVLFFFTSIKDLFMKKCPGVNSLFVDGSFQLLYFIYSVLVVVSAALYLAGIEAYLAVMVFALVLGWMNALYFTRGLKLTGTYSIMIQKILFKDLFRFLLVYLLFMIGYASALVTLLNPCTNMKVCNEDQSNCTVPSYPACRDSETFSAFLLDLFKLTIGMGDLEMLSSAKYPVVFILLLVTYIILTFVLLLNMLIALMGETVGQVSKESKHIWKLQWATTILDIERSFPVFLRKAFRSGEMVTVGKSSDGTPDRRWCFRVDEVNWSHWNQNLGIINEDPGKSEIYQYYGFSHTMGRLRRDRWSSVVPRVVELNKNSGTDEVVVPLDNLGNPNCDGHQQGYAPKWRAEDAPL

As to `C[C@]1(Cn2cnc3ccc(C#N)cc32)CCC[C@@]2(CN(c3cnc(C4CC4)cn3)C(=O)O2)C1`, in [1], the concentration for half-maximal inhibition (IC50) stood at 1.5 nM. This compound also gave a ChromLogD in data set [2] of 5.3. Further, the CL free in data set [3] worked out at 340 mL/min/kg.

Take `C[C@]1(Cn2cnc3ccc(C#N)cc32)CCC[C@@]2(CN(c3ccc(F)cc3)C(=O)O2)C1`: the half-inhibitory concentration (IC50) in data set [1] was 96 nM. For the same compound, in data set [2], the ChromLogD turned out to be 4.9. In addition, in [4], the MRT stood at 2.8 h. In addition, the clearance in data set [5] was 39 mL/min/kg. In addition, the bioavailability in data set [6] amounted to 100%. Moreover, the Vd in data set [7] was found to be 6.5 L/kg.

In [8], `N#Cc1ccc2ncn(C[C@H]3CCC[C@]4(C3)CN(c3ccc(F)cc3)C(=O)O4)c2c1` (racemic) had a Vduss of 61 L/kg. The compound also came in with a half-maximal inhibitory concentration (IC50) in data set [1] of 1900 nM. This compound also yielded a ChromLogD in data set [2] of 4.5. In data set [4], this compound came in with a mean residence time MRT of 3.1 h. The same compound registered a fraction unbound in [9] of 0.065. This compound also yielded a clearance in data set [5] of 23 mL/min/kg. This compound had a CL free in data set [3] of 350 mL/min/kg. In data set [6], this compound showed a bioavailability of 100%. Besides, in [7], the Vd is 4 L/kg.

`Cc1cnc(N2C[C@@]3(CCC[C@](C)(Cn4cnc5ccc(C#N)cc54)C3)OC2=O)cn1` gave an IC50 in [1] of 60 nM. This compound gave a ChromLogD in data set [2] of 4.2.

In turn, `C[C@]1(Cn2cnc3ccc(C#N)cc32)CCC[C@@]2(CN(c3ccccc3)C(=O)O2)C1` gave an IC50 in [1] of 49 nM.

On to `CC(C)(C)CN1C[C@@]2(CCC[C@](C)(Cn3cnc4ccc(C#N)cc43)C2)OC1=O`, for which, in [1], the concentration for half-maximal inhibition (IC50) is 0.5 nM. The compound further registered a ChromLogD in data set [2] of 4.6. Besides, in [4], the MRT is 0.5 h. In data set [9], this compound yielded a fraction unbound of 0.14. This compound registered a clearance in [5] of 63 mL/min/kg. The CL free in [3] came out at 450 mL/min/kg. Also, in [6], the bioavailability is 32%. The Vd in [7] worked out at 2.1 L/kg.

With `CCOc1cnc(N2C[C@@]3(CCC[C@](C)(Cn4cnc5ccc(C#N)cc54)C3)OC2=O)cn1`, the IC50 in [1] was 4.2 nM. In data set [2], this compound registered a ChromLogD of 5.5. Further, the MRT in data set [4] came to 5.2 h. In [9], this compound registered a fraction unbound of 0.037. The clearance in data set [5] came to 17 mL/min/kg. Further, the CL free in [3] was 460 mL/min/kg. The bioavailability in data set [6] is 100%. Further, in data set [7], the Vd stood at 5.4 L/kg.

For `N#Cc1ccc2ncn(C[C@H]3CCC[C@]4(C3)CN(c3ccccc3Cl)C(=O)O4)c2c1`, half-maximal inhibition in data set [1] (IC50) required 63 nM. In data set [2], this compound returned a ChromLogD of 4.3.

As for `CCOc1cccc(N2C[C@@]3(CCC[C@H](Cn4cnc5ccc(C#N)cc54)C3)OC2=O)c1`, the concentration for half-maximal inhibition (IC50) in data set [1] stood at 74 nM. For the same compound, in data set [2], the ChromLogD is 5.

In the case of `COc1ccccc1N1C[C@@]2(CCC[C@H](Cn3cnc4ccc(C#N)cc43)C2)OC1=O`, in data set [1], the IC50 was found to be 340 nM. For the same compound, the ChromLogD in data set [2] is on record as 4.2.

Consider `CC(C)(C)c1cnc(N2C[C@@]3(CCC[C@](C)(Cn4cnc5ccc(C#N)cc54)C3)OC2=O)cn1`, for which, in data set [1], the IC50 came out at 1.2 nM. The ChromLogD in data set [2] is reported as 6.3.

Turning to `N#Cc1ccc2ncn(C[C@H]3CCC[C@]4(C3)CN(c3ccccc3F)C(=O)O4)c2c1`, the IC50 in data set [1] worked out at 540 nM. The compound further had a ChromLogD in data set [2] of 4.2.

As to `CCOc1cccc(N2C[C@@]3(CCC[C@](C)(Cn4cnc5ccc(C#N)cc54)C3)OC2=O)c1`, in data set [1], the 50% inhibitory concentration (IC50) stood at 1.6 nM. In [2], the ChromLogD amounted to 5.3.

As for `CCOc1ccc(N2C[C@@]3(CCC[C@H](Cn4cnc5ccc(C#N)cc54)C3)OC2=O)cc1`, the half-maximal inhibitory concentration (IC50) in data set [1] came to 140 nM. The compound further had a ChromLogD in [2] of 4.8.

`COc1ccccc1N1C[C@@]2(CCC[C@](C)(Cn3cnc4ccc(C#N)cc43)C2)OC1=O`: 1.2 nM corresponded to half-maximal inhibition in data set [1] (IC50). Moreover, the ChromLogD in data set [2] is 4.6. Also, the MRT in [4] was found to be 1 h. In data set [9], this compound came in with a fraction unbound of 0.036. This compound also displayed a clearance in data set [5] of 26 mL/min/kg. In data set [3], this compound showed a CL free of 720 mL/min/kg. This compound showed a bioavailability in data set [6] of 100%. The Vd in data set [7] was found to be 1.4 L/kg.

`CCOc1ccc(N2C[C@@]3(CCC[C@](C)(Cn4cnc5ccc(C#N)cc54)C3)OC2=O)nn1`: in data set [1], the IC50 is 60 nM. In [4], this compound had an MRT of 1.9 h. Moreover, in data set [5], the clearance is 14 mL/min/kg.

For the compound `CCOc1ccc(N2C[C@@]3(CCC[C@](C)(Cn4cnc5ccc(C#N)cc54)C3)OC2=O)cn1`, in data set [1], the concentration for half-maximal inhibition (IC50) was 3.1 nM. The mean residence time (MRT) in data set [4] turned out to be 1.6 h. Further, the fraction unbound in [9] was 0.031. The compound further came in with a clearance in [5] of 24 mL/min/kg.

The compound `C[C@]1(Cn2cnc3ccc(C#N)cc32)CCC[C@@]2(CN(c3cccc(Cl)c3)C(=O)O2)C1` returned an IC50 in data set [1] of 48 nM. Moreover, the ChromLogD in data set [2] worked out at 5.7.

Turning to `Cc1ccccc1N1C[C@@]2(CCC[C@H](Cn3cnc4ccc(C#N)cc43)C2)OC1=O`, in data set [1], the half-maximal inhibitory concentration (IC50) stood at 310 nM. The ChromLogD in data set [2] is reported as 4.6.

For the compound `CCOc1ccc(N2C[C@@]3(CCC[C@](C)(Cn4cnc5ccc(C#N)cc54)C3)OC2=O)cc1`, the concentration for half-maximal inhibition (IC50) in data set [1] amounted to 5.2 nM. In data set [2], this compound showed a ChromLogD of 5.4. The MRT in [4] is 0.9 h. Further, in [5], the clearance is 140 mL/min/kg. In addition, the bioavailability in data set [6] was 29%. The Vd in [7] came to 7.2 L/kg.

`N#Cc1ccc2ncn(C[C@H]3CCC[C@]4(C3)CN(c3ccccc3)C(=O)O4)c2c1` returned an IC50 in data set [1] of 820 nM. The ChromLogD in data set [2] was found to be 4.6.

Take `CC(C)(C)CN1C[C@@]2(CCC[C@H](Cn3cnc4ccc(C#N)cc43)C2)OC1=O`: the Vduss in data set [8] is 8.1 L/kg. Moreover, the values for the half-maximal inhibitory concentration (IC50) in data set [1] and in data set [10] were 16 nM and 5.5 nM, respectively. The same compound showed a ChromLogD in [2] of 4.5. The compound also came in with an MRT in [4] of 0.7 h. The compound further registered an unbound share (fraction unbound) in data set [9] of 0.32. For the same compound, the clearance in data set [5] is 64 mL/min/kg. The CL free in data set [3] was found to be 200 mL/min/kg. This compound showed a bioavailability in data set [6] of 63%. For the same compound, the Vd in [7] was found to be 2.6 L/kg.

As for `CC(C)(C)N1C[C@@]2(CCC[C@H](Cn3cnc4ccc(C#N)cc43)C2)OC1=O` (racemic), in [1], the 50% inhibitory concentration (IC50) amounted to 5200 nM. In [2], the ChromLogD was 4. In [4], this compound registered an MRT of 0.5 h. Moreover, the clearance in data set [5] came out at 55 mL/min/kg. The bioavailability in [6] turned out to be 44%. Also, the Vd in [7] stood at 1.8 L/kg.

In [1], `C[C@]1(Cn2cnc3ccc(C#N)cc32)CCC[C@@]2(CN(c3ccccc3Cl)C(=O)O2)C1` displayed an IC50 of 2.5 nM. In data set [2], this compound showed a ChromLogD of 4.8.

Consider `N#Cc1ccc2ncn(C[C@H]3CCC[C@]4(C3)CN(c3cccc(Cl)c3)C(=O)O4)c2c1`, for which the IC50 in data set [1] turned out to be 240 nM. In data set [2], this compound showed a ChromLogD of 5.3.

For `Cc1ccccc1N1C[C@@]2(CCC[C@](C)(Cn3cnc4ccc(C#N)cc43)C2)OC1=O`, half-maximal inhibition in data set [1] (IC50) required 1.7 nM. The ChromLogD in data set [2] was 4.8.

For `C[C@]1(Cn2cnc3ccc(C#N)cc32)CCC[C@@]2(CN(c3ccccc3F)C(=O)O2)C1`, the IC50 in [1] amounted to 5.2 nM. Besides, in data set [2], the ChromLogD is reported as 4.9.

`CC(C)(C)CN1C[C@@]2(CCC[C@H](C(C)(C)n3cnc4ccc(C#N)cc43)C2)OC1=O` (racemic) showed an IC50 in data set [1] of over 25000 nM. This compound registered a ChromLogD in data set [2] of 4.6. In addition, the MRT in data set [4] worked out at 0.3 h. For the same compound, the clearance in data set [5] amounted to 70 mL/min/kg. This compound also returned a bioavailability in [6] of 8%. Also, in data set [7], the Vd came to 1.1 L/kg.

For `CC(C)(O)c1cnc(N2C[C@@]3(CCC[C@](C)(Cn4cnc5ccc(C#N)cc54)C3)OC2=O)cn1` [GSK2798745], the values for the IC50 in data set [1] and in [10] were 1.8 nM and 1.6 nM, respectively. The same compound showed a ChromLogD in data set [2] of 4. The compound also displayed a mean residence time (MRT) in data set [4] of 4.9 h. Also, the fraction unbound in data set [9] turned out to be 0.082. The same compound gave a clearance in data set [5] of 6.5 mL/min/kg. In data set [3], the CL free amounted to 79 mL/min/kg. Besides, in data set [6], the bioavailability was 59%. Besides, in data set [7], the Vd stood at 1.9 L/kg.

The compound `COc1cnc(N2C[C@@]3(CCC[C@](C)(Cn4cnc5ccc(C#N)cc54)C3)OC2=O)cn1` returned an IC50 in data set [1] of 14 nM. In data set [2], the ChromLogD worked out at 4.8. This compound gave a CL free in data set [3] of 400 mL/min/kg.
